pIC50: −log10 of the molar value.
Molecular target: PIK3CD (Human) (UniProt O00329)
Experiment: Assessment of PIK3CD Kinase Activity

Chain of PIK3CD (Human) (O00329 whole entry, looked up): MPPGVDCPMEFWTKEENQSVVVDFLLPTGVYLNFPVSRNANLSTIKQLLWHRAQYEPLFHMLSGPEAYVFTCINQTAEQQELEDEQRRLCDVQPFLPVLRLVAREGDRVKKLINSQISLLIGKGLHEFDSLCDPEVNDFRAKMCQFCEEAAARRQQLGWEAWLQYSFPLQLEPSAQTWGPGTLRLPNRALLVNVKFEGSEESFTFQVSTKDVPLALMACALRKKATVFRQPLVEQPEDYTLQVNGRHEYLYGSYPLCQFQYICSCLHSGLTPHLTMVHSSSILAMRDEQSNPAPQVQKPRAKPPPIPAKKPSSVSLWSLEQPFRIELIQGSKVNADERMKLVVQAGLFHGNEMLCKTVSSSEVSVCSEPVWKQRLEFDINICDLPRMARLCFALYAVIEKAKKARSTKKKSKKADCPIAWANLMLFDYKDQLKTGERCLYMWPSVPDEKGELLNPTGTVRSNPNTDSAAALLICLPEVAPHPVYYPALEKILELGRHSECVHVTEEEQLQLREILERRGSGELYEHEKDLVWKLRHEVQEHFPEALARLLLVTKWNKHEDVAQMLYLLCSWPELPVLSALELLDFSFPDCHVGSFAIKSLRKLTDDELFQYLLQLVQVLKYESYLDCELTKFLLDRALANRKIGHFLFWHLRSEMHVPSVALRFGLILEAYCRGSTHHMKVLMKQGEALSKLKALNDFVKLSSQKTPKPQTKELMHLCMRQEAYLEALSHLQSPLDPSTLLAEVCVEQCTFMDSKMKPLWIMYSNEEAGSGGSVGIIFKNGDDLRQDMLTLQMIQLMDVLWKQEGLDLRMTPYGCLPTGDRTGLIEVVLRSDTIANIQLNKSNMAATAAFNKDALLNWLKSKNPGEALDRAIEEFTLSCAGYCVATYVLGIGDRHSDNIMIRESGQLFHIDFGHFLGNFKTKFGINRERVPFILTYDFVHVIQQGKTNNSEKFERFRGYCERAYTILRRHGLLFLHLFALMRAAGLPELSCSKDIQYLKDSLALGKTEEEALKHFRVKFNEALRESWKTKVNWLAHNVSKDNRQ

pIC50	SMILES
≥ 7.00	CN(C1CCN(Cc2cc3nc(-c4cccc5[nH]ncc45)nc(N4CCOCC4)c3s2)CC1)S(C)(=O)=O
≥ 7.00	CNC(=O)C1CCCN(Cc2cc3nc(-c4cccc5[nH]ncc45)nc(N4CCOCC4)c3s2)C1 (configuration not stated)
≥ 7.00	CN1CCN(Cc2cc3nc(-c4cccc5[nH]ncc45)nc(N4CCOCC4)c3s2)CC1
≥ 7.00	COCC(=O)N(C)C1CCN(Cc2cc3nc(-c4cccc5[nH]ncc45)nc(N4CCOCC4)c3s2)CC1
≥ 7.00	CCC(CC)(COC)N1CCN(Cc2cc3nc(-c4cccc5[nH]ncc45)nc(N4CCOCC4)c3s2)CC1
≥ 7.00	c1ccc(N2CCN(Cc3cc4nc(-c5cccc6[nH]ncc56)nc(N5CCOCC5)c4s3)CC2)nc1
≥ 7.00	OC1(Cc2ccccn2)CCN(Cc2cc3nc(-c4cccc5[nH]ncc45)nc(N4CCOCC4)c3s2)CC1
≥ 7.00	CNC(=O)[C@@H]1CCCN(Cc2cc3nc(-c4cccc5[nH]ncc45)nc(N4CCOCC4)c3s2)C1
≥ 7.00	c1cc(-c2nc(N3CCOCC3)c3sc(CN4CCC(N5CCOCC5)CC4)cc3n2)c2cn[nH]c2c1
≥ 7.00	COCC1CCCN(Cc2cc3nc(-c4cccc5[nH]ncc45)nc(N4CCOCC4)c3s2)C1 (configuration not stated)
≥ 7.00	C[C@@H]1CN(C)C[C@H](C)N1Cc1cc2nc(-c3cccc4[nH]ncc34)nc(N3CCOCC3)c2s1
≥ 7.00	CN(C)CCCS(=O)(=O)N1CCN(Cc2cc3nc(-c4cccc5[nH]ncc45)nc(N4CCOCC4)c3s2)CC1
≥ 7.00	Cc1cc(CN2CCN(Cc3cc4nc(-c5cccc6[nH]ncc56)nc(N5CCOCC5)c4s3)CC2)no1
≥ 7.00	Cc1csc(CN2CCN(Cc3cc4nc(-c5cccc6[nH]ncc56)nc(N5CCOCC5)c4s3)CC2)n1
≥ 7.00	COCCN(C)C(=O)C1CCN(Cc2cc3nc(-c4cccc5[nH]ncc45)nc(N4CCOCC4)c3s2)CC1
≥ 7.00	CN(C)C(=O)CN1CCN(Cc2cc3nc(-c4cccc5[nH]ccc45)nc(N4CCOCC4)c3s2)CC1
≥ 7.00	OCCN1CCN(Cc2cc3nc(-c4cccc5[nH]ccc45)nc(N4CCOCC4)c3s2)CC1
≥ 7.00	COCC(C)(C)N1CCN(Cc2cc3nc(-c4cccc5[nH]ncc45)nc(N4CCOCC4)c3s2)CC1
≥ 7.00	c1cc(-c2nc(N3CCOCC3)c3sc(CN4CCN(Cc5ncc[nH]5)CC4)cc3n2)c2cn[nH]c2c1

pIC50	SMILES
≥ 7.00	COCCN(C)C1CCN(Cc2cc3nc(-c4cccc5[nH]ccc45)nc(N4CCOCC4)c3s2)CC1
≥ 7.00	c1cc(-c2nc(N3CCOCC3)c3sc(CN4CCN(Cc5ccncc5)CC4)cc3n2)c2cn[nH]c2c1
≥ 7.00	CN(C)C(=O)CN1CCN(Cc2cc3nc(-c4cccc5[nH]ncc45)nc(N4CCOCC4)c3s2)CC1
≥ 7.00	c1cc(-c2nc(N3CCOCC3)c3sc(CN4CCC(N5CCOCC5)CC4)cc3n2)c2cc[nH]c2c1
≥ 7.00	c1cc(-c2nc(N3CCOCC3)c3sc(CN4CCN(CC5CC5)CC4)cc3n2)c2cn[nH]c2c1
≥ 7.00	COCCCN(C)C1CCN(Cc2cc3nc(-c4cccc5[nH]ncc45)nc(N4CCOCC4)c3s2)CC1
≥ 7.00	COCCN(C)C(=O)N1CCN(Cc2cc3nc(-c4cccc5[nH]ncc45)nc(N4CCOCC4)c3s2)CC1
≥ 7.00	CC(C)(O)CN1CCN(Cc2cc3nc(-c4cccc5[nH]ncc45)nc(N4CCOCC4)c3s2)CC1
≥ 7.00	COCCN(C1CCN(Cc2cc3nc(-c4cccc5[nH]ncc45)nc(N4CCOCC4)c3s2)CC1)S(C)(=O)=O
≥ 7.00	CC(C)(C(=O)N1CCCC1)N1CCN(Cc2cc3nc(-c4cccc5[nH]ncc45)nc(N4CCOCC4)c3s2)CC1
≥ 7.00	CC(C)(CO)N1CCN(Cc2cc3nc(-c4cccc5[nH]ncc45)nc(N4CCOCC4)c3s2)CC1
≥ 7.00	C[C@@H]1CN(Cc2cc3nc(-c4cccc5[nH]ncc45)nc(N4CCOCC4)c3s2)C[C@H](C)N1Cc1ccccn1
≥ 7.00	c1cc(-c2nc(N3CCOCC3)c3sc(CN4CCC(CN5CCOCC5)CC4)cc3n2)c2cn[nH]c2c1
≥ 7.00	CN1CCN(Cc2cc3nc(-c4cc(F)cc5[nH]ncc45)nc(N4CCOCC4)c3s2)CC1
≥ 7.00	Cc1ccc(CN2CCN(Cc3cc4nc(-c5cccc6[nH]ncc56)nc(N5CCOCC5)c4s3)CC2)o1
≥ 7.00	c1cc(-c2nc(N3CCOCC3)c3sc(CN4CCN(Cc5cscn5)CC4)cc3n2)c2cn[nH]c2c1
≥ 7.00	COCCN(C(C)C)C1CCN(Cc2cc3nc(-c4cccc5[nH]ncc45)nc(N4CCOCC4)c3s2)CC1
≥ 7.00	Cn1ccnc1CN1CCN(Cc2cc3nc(-c4cccc5[nH]ncc45)nc(N4CCOCC4)c3s2)CC1
